This note sets out measurements from PubChem BioAssay (NCI).

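Five concentrations, 48 hours, 96-well plates. TGI: total growth inhibition.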 Where only a bound is given, the exact number is not on record here.

Some test systems named below: U251 CNS; IGROV1 ovarian; SK-OV-3 ovarian; SF-295 CNS; T-47D breast; SF-268 CNS; SK-MEL-28 melanoma; A498 renal; COLO 205 colon; MDA-N.
Holding throughout (assay): NCI tumour cell line growth inhibition, 48 h

With `COc1cc(CN2CCCCC2)cc2cc(C(=O)O)c(=O)oc12`, the TGI in the test with U251 CNS, with IGROV1 ovarian, in the test on SK-OV-3 ovarian, in the test on SF-295 CNS, with T-47D breast and in the test on SF-268 CNS was greater than 100 µM each time. For the same compound, the TGI with SK-MEL-28 melanoma, in the test with A498 renal, with COLO 205 colon and in the test on MDA-N was greater than 100 µM throughout.
As to `FC(F)(F)c1ccc2nc3n(c2c1)C(c1c(Cl)cccc1Cl)SC3` (stereo not given), the TGI in the test on U251 CNS amounted to 32.6 µM; in the test on IGROV1 ovarian it was 24.1 µM; in the test with SK-OV-3 ovarian it was 27.9 µM; in the test on SF-295 CNS, 30.3 µM; in the test on T-47D breast, 26.9 µM; in the test on SF-268 CNS, 41.8 µM. For the same compound, the TGI in the test with SK-MEL-28 melanoma came out at 29.5 µM; with A498 renal, 34.8 µM; in the test with MDA-N, 24.3 µM.
As to `Clc1ccc(OCc2nnc(CCCCCCCCc3nnc(COc4ccc(Cl)cc4)n3Nc3ccccc3)n2Nc2ccccc2)cc1`, the TGI with U251 CNS was greater than 87.4 µM; in the test on IGROV1 ovarian it was greater than 100 µM; with SK-OV-3 ovarian it was greater than 100 µM; in the test on SF-295 CNS, greater than 100 µM; with T-47D breast it was greater than 100 µM; in the test on SF-268 CNS it was greater than 100 µM. Besides, the TGI was greater than 100 µM with SK-MEL-28 melanoma, greater than 100 µM in the test with A498 renal, 0.894 µM in the test with COLO 205 colon and 37.1 µM with MDA-N.
`CCOC(=O)/C(C#N)=N\Nc1ccc(-n2c(C)nc3ccccc3c2=O)cc1`: the TGI with U251 CNS, in the test on IGROV1 ovarian, with SK-OV-3 ovarian, in the test with SF-295 CNS, in the test with T-47D breast and with SF-268 CNS was greater than 100 µM in each case. Also, the TGI in the test on SK-MEL-28 melanoma, with A498 renal, in the test on COLO 205 colon and in the test with MDA-N was greater than 100 µM throughout.
For the compound `C=C1CC(C)(c2ccc(Nc3nc4ccccc4c4occc34)cc2)OC1=O` (stereo not given), the TGI in the test with U251 CNS came to 38.9 µM; with SK-OV-3 ovarian, 24.1 µM; in the test on SF-295 CNS, 27.4 µM; in the test with T-47D breast it was 6.85 µM; with SF-268 CNS, 15.2 µM; with SK-MEL-28 melanoma it was 27.4 µM. Besides, the TGI in the test with A498 renal was found to be 33.8 µM; in the test with COLO 205 colon, 16.2 µM; with MDA-N, 12.7 µM.
On to `COc1cc2c(/C=C3/C(=O)Nc4ccccc43)c(Cl)[nH]c2cc1C`, for which the TGI in the test on U251 CNS stood at 10.9 µM; with IGROV1 ovarian, 1.1 µM; with SK-OV-3 ovarian, 0.141 µM; in the test with SF-295 CNS, 1.19 µM; in the test on T-47D breast, 41.1 µM; in the test on SF-268 CNS it was 18.5 µM. The TGI came to 29.6 µM in the test with SK-MEL-28 melanoma, 19.8 µM in the test with A498 renal, 1.73 µM in the test with COLO 205 colon and 0.0396 µM with MDA-N.
Take `Cc1nn(-c2cc(Cl)ccc2[N+](=O)[O-])c(C)c1Cl`: the TGI in the test with U251 CNS, in the test on IGROV1 ovarian, in the test on SK-OV-3 ovarian, in the test on SF-295 CNS, in the test with T-47D breast and in the test on SF-268 CNS was greater than 100 µM each time. For the same compound, the TGI in the test on SK-MEL-28 melanoma, with A498 renal, in the test on COLO 205 colon and with MDA-N was greater than 100 µM each time.
For the compound `CC1S/C(=N/c2nnc(-c3ccccc3)o2)NC1=O` (stereo not given), the TGI in the test on U251 CNS, in the test on IGROV1 ovarian, in the test with SF-295 CNS, in the test with T-47D breast, in the test with SF-268 CNS and in the test on SK-MEL-28 melanoma was greater than 100 µM throughout. Moreover, the TGI in the test with A498 renal, in the test on COLO 205 colon and in the test with MDA-N was greater than 100 µM each time.
Consider `CC1(C)CNC(=O)C2(C=NC(C)(C)CNC(=O)C3(C=N1)CCCO3)CCCO2` (stereo not given), for which the TGI in the test with U251 CNS, in the test with IGROV1 ovarian, in the test on SK-OV-3 ovarian, in the test with SF-295 CNS, with T-47D breast and in the test on SF-268 CNS was greater than 10 µM each time. For the same compound, the TGI in the test with SK-MEL-28 melanoma, in the test on A498 renal, in the test on COLO 205 colon and in the test on MDA-N was greater than 10 µM each time.
Turning to `CCOc1cc(-c2nc3ccccn3c2/N=C/c2cc(Br)ccc2O)ccc1O`, the TGI is 40.2 µM in the test on U251 CNS; 49.1 µM in the test with IGROV1 ovarian; 92.7 µM with SK-OV-3 ovarian; greater than 100 µM in the test on SF-295 CNS; 22.4 µM with T-47D breast; greater than 100 µM in the test on SF-268 CNS. Moreover, the TGI was greater than 100 µM in the test on SK-MEL-28 melanoma, 90.5 µM in the test on A498 renal, greater than 100 µM in the test with COLO 205 colon and greater than 100 µM in the test with MDA-N.
Take `Brc1ccc2c(-c3csc(-c4c[nH]c5ccc(Br)cc45)n3)c[nH]c2c1`: the TGI stood at 16.5 µM with U251 CNS; 16.4 µM in the test on IGROV1 ovarian; 24.2 µM in the test on SK-OV-3 ovarian; 10.9 µM in the test with SF-295 CNS; 21.3 µM in the test with T-47D breast; 13.2 µM in the test with SF-268 CNS. The TGI was 25.8 µM with SK-MEL-28 melanoma, 8.42 µM in the test with A498 renal, greater than 26.7 µM in the test with COLO 205 colon and 16.6 µM in the test with MDA-N.
With `CN(C)CCn1c(=O)c2ccc(NCCCN(C)CCCNc3ccc4c(=O)n(CCN(C)C)c(=O)n5c6ccc([N+](=O)[O-])cc6c(=O)c3c45)c3c(=O)c4cc([N+](=O)[O-])ccc4n(c1=O)c23`, the TGI in the test on U251 CNS is 0.124 µM; with IGROV1 ovarian it was 0.174 µM; with SK-OV-3 ovarian, 0.886 µM; with SF-295 CNS, 0.594 µM; with T-47D breast, greater than 100 µM; with SF-268 CNS, 0.733 µM. For the same compound, the TGI with SK-MEL-28 melanoma stood at 0.553 µM; with A498 renal, 0.398 µM; with COLO 205 colon it was 0.204 µM; in the test with MDA-N, 0.22 µM.
Take `CCOC(=O)C(CC#Cc1ccc(C#CCC(NC(C)=O)C(=O)OCC)cc1)NC(C)=O` (stereo not given): the TGI in the test with IGROV1 ovarian, in the test on SK-OV-3 ovarian, with SF-295 CNS, in the test on T-47D breast, with SF-268 CNS and with SK-MEL-28 melanoma was greater than 100 µM in each case. For the same compound, the TGI in the test on A498 renal, with COLO 205 colon and in the test on MDA-N was greater than 100 µM throughout.
For `COC(=O)c1ccc(C=Nc2ccc(S(N)(=O)=O)cc2)cc1`, the TGI with U251 CNS, in the test on SK-OV-3 ovarian, in the test on SF-295 CNS, in the test on T-47D breast, with SF-268 CNS and with SK-MEL-28 melanoma was greater than 100 µM each time. The TGI in the test with A498 renal, in the test on COLO 205 colon and in the test with MDA-N was greater than 100 µM each time.
